Test results as given in US11180528B2 (priority 2018, dated 2021).
pEC50: −log10 of the molar value. Converted amounts (≈) assume the structure as drawn. “Also recorded” adds a separate entry of the source. Like-named read-outs stand apart in the source and are kept apart here. Ends that are not written are not given here.

Experiments:
[1] = test system: F. tularensis tularensis SchuS4
F. tularensis LVS [2] = conditions: mouse, in vivo
F. tularensis LVS [3] = test system: F. tularensis LVS
F. tularensis LVS [4] = conditions: mouse, in vivo; cited from earlier work
F. tularensis LVS [5] = test system: F. tularensis LVS; remark: listed apart in the source
[6] = test system: F. tularensis tularensis SchuS4; remark: listed apart in the source
G. mellonella larvae = conditions: in vivo
F. tularensis LVS LPS = assay type: binding, Francisella tularensis subsp. holarctica
F. tularensis LVS [7] = test system: F. tularensis LVS; design: species or system Galleria mellonella; conditions: in vivo
F. tularensis LVS [8] = assay type: cell-based, Francisella tularensis subsp. holarctica
E. coli LPS = assay type: binding
F. tularensis LVS [9] = assay type: cell-based, Francisella tularensis subsp. holarctica; remark: listed apart in the source
[10] = test system: A549 human lung epithelial cells

CC[C@H](C)[C@H](NC(=O)[C@H](CCCCN)NC(=O)[C@H](CCC(=O)O)NC(=O)[C@H](CCCCN)NC(=O)[C@H](CO)NC(=O)[C@H](CCCCN)NC(=O)[C@H](CCCNC(=N)N)NC(=O)[C@H](Cc1ccccc1)NC(=O)[C@H](Cc1ccccc1)NC(=O)[C@H](CC(=O)O)NC(=O)CNC(=O)[C@H](CC(C)C)NC(=O)[C@@H](N)CC(C)C)C(=O)NCC(=O)N[C@@H](CCCCN)C(=O)N[C@@H](CCC(=O)O)C(=O)N[C@@H](Cc1ccccc1)C(=O)N[C@@H](CCCCN)C(=O)N[C@@H](CCCNC(=N)N)C(=O)N[C@H](C(=O)N[C@H](C(=O)N[C@@H](CCC(N)=O)C(=O)N[C@@H](CCCNC(=N)N)C(=O)N[C@H](C(=O)N[C@@H](CCCCN)C(=O)N[C@@H](CC(=O)O)C(=O)N[C@@H](Cc1ccccc1)C(=O)N[C@@H](CC(C)C)C(=O)N[C@@H](CCCNC(=N)N)C(=O)N[C@@H](CC(N)=O)C(=O)N[C@@H](CC(C)C)C(=O)N[C@H](C(=O)N1CCC[C@H]1C(=O)N[C@@H](CCCNC(=N)N)C(=O)N[C@H](C(=O)N[C@@H](CCC(=O)O)C(=O)N[C@@H](CO)C(=O)O)[C@@H](C)O)C(C)C)[C@@H](C)CC)C(C)C)[C@@H](C)CC [LL-37]
pEC50 [1]: 6.90 | EC50 (95% CI) [μg/ml] [1]: 0.562 (0.195 to 1.61) μg/ml | EC50 (95% CI) [μg/ml] (F. tularensis NIH B38): 0.13 (0.076-0.21) μg/ml | pEC50 (F. tularensis NIH B38; 3 h): 7.55 | severity of signs of disease (health scores) (F. tularensis LVS [2]): nor did these peptides lessen signs of disease | EC50 (95% CI) (F. tularensis LVS [3]): 0.209 µg/mL (≈ 0.0465 µM) | EC50 (95% CI) [μg/ml] (F. tularensis LVS [3]): 0.21 (0.14-0.31) μg/ml | pEC50 (F. tularensis LVS [3]; 3 h): 7.33 | mean time till death and survival (F. tularensis LVS [4]): extended mean time till death but did not increase survival; also recorded: significantly extended mean time to death, but did not ultimately rescue any mice

FSTKTRNWFSEHFKKVKEKLKDTFA [Apo5, reference compound]
EC50 (95% CI) (F. tularensis NIH B38; 3 h): ~16 µg/mL | EC50 (95% CI) (F. tularensis LVS [3]; 3 h): ~6 µg/mL

KFRNWFSEHFKKFKEKLKDTFA [GATR-1]
MIC / inhibitory activity in broth (F. tularensis LVS [5]): inactive | EC50 (95% CI) [μg/ml] (F. tularensis NIH B38): 16 (9.5-27) μg/ml | pEC50 (F. tularensis NIH B38; 3 h): 5.25 | EC50 (95% CI) [μg/ml] (F. tularensis LVS [3]): 0.76 (0.54-1.1) μg/ml | pEC50 (F. tularensis LVS [3]; 3 h): 6.59

KFRNWFSQHFKKFKQKLKNTFA [GATR-3]
pEC50 [1]: 5.00 | MIC [6]: >83.3 µg/mL | pEC50 (F. tularensis NIH B38; 3 h): 6.55 | pEC50 (F. tularensis LVS [3]; 3 h): 6.72

KFRNWFSQHWKKWKQKLKNTWA [GATR-5]
survival of larvae (toxicity) (G. mellonella larvae): 30% | pEC50 (F. tularensis NIH B38; 3 h): 6.19 | pEC50 (F. tularensis LVS [3]; 3 h): 6.59

KFRNWFSQHWRRWRQRLRNTWA [GATR-6]
pEC50 [1]: 4.98 | MIC [6]: >83.3 µg/mL | pEC50 (F. tularensis NIH B38; 3 h): 7.29 | mean time till death (MTD) (F. tularensis LVS [2]): 6 days | pEC50 (F. tularensis LVS [3]; 3 h): 6.54

KTRNWFSEHFKKVKEKLKDTFA [Apo6]
EC50 [μM] [1]: Not active | LPS binding (F. tularensis LVS LPS): does not significantly bind | survival of infected larvae (F. tularensis LVS [7]): 60% | pore formation (change in RFU) (F. tularensis LVS [8]): significant pore formation; also recorded: significant membrane disruption | MIC / inhibitory activity in broth (F. tularensis LVS [5]): no observable MIC | LPS binding (E. coli LPS): did not bind | EC50 (95% CI) (F. tularensis NIH B38): 16.3 µg/mL | EC50 (95% CI) [μg/ml] (F. tularensis NIH B38): 16 (8.6-31) μg/ml | pEC50 (F. tularensis NIH B38; 3 h): 5.23 | EC50 (95% CI) (F. tularensis NIH B38; 3 h): ~16 µg/mL | dissipation of membrane potential (F. tularensis LVS [9]): dissipated the membrane potential | efficacy in murine studies (F. tularensis LVS [2]): not reliably effective | EC50 (95% CI) (F. tularensis LVS [3]): 6.82 µg/mL | EC50 (95% CI) [μg/ml] (F. tularensis LVS [3]): 6.8 (5.9-7.8) μg/ml | pEC50 (F. tularensis LVS [3]; 3 h): 5.60 | EC50 (95% CI) (F. tularensis LVS [3]; 3 h): ~6 µg/mL

KTRNWFSQHFKKVKQKLKNTFA [GATR-2]
MIC / inhibitory activity in broth (F. tularensis LVS [5]): inactive | EC50 (95% CI) [μg/ml] (F. tularensis NIH B38): 11 (7.7-15) μg/ml | pEC50 (F. tularensis NIH B38; 3 h): 5.41 | EC50 (95% CI) [μg/ml] (F. tularensis LVS [3]): 2.4 (1.5-3.7) μg/ml | pEC50 (F. tularensis LVS [3]; 3 h): 6.07

NPKTRNWFSEHFKKVKEKLKDTFA [GATR-4]
MIC / inhibitory activity in broth (F. tularensis LVS [5]): inactive | EC50 [μM] (F. tularensis NIH B38): Not active | pEC50 (F. tularensis LVS [3]; 3 h): 5.43 | EC50 (95% CI) (F. tularensis LVS [3]; 3 h): 11.0 µg/mL

RWRNWWSQRWRRWRQRLRNTWA [GATR-7]
pEC50 [1]: 5.13 | inhibition (F. tularensis LVS [5]; 41.5 μg/ml): 85% | MIC [6]: 41.7 µg/mL | suppression of cell proliferation [10]: some statistically significant suppression of cell proliferation | death of larvae (toxicity) (G. mellonella larvae): not found to have significant death | pEC50 (F. tularensis NIH B38; 3 h): 6.28 | pEC50 (F. tularensis LVS [3]; 3 h): 6.49
